Where “and” joins values, the source holds several entries; their conditions need not be identical. Identical values can stand only once. Entries after “also recorded” stand apart in the source; their conditions may differ. Positions of bridges follow the written chain, without caps; N, C: chain ends. Residues, ends and D or L forms follow the SMILES beside them.
Experiments:
cerebellar neurons [1] = type: cell-based, rat; details: K252a 100 nM, KT5720 200 nM, H-89 400 nM, Wortmannin and LY294002 10 μM; for effect on the neurite outgrowth response to BAG: BAG 6 μM; for effect on the neurite outgrowth response to BDNF: BDNF 5 ng/ml; for effect on the neurite outgrowth response to FGF2: FGF2 5 ng/ml
Experimental: To test the effects of various agents, the experiments were done as indicated in the figure using control media containing no additional supplements, or using media additionally supplement with K252a (100 nM final concentration), a PKA inhibitor (KT5720 at 200 nM final concentration or H-89 at 400 nM final concentration), or a PI3K inhibitor (Wortmannin or Ly294002, each at a final concentration of 10 μM). […] Each column in the figure indicates pooled results from at least three independent experiments, and the bars on each column indicate the SEM.
Reagents and culture treatment. Unless otherwise noted here, reagents in the experiments set forth in this Section were obtained and as set forth supra, in Section 7.1.3 et seq. In particular, recombinant human FGF2 and BDNF were obtained from R&D systems (Minneapolis, Minn.) and used at final concentrations of 5 ng/ml. The Trk receptor […] K252a was obtained from Calbiochem (San Diego, Calif.) and used at a final concentration of 100 nM. The Trk agonist peptide BAG (SEQ ID NO:18) was obtained from a commercial supplier (Multiple Peptide Systems, San Diego Calif.). […] A p75 NTR rabbit polyclonal antibody was raised against the extracellular domain of that receptor as previously described (see, Huber & Chao, Dev. Biol. 1995, 167:227–238) and used at a 1:200 dilution of serum. The known PKA inhibitors KT5720 and H-89 were obtained from Calbiochem (San Diego, Calif.) and used at final concentrations of 200 and 400 nM, respectively.

Trk receptor = Trk receptor (Rattus norvegicus, UniProt Q63604); details: maximally active BAG (6 μM); peptides 125 μM, K252a 100 nM
TrkB receptor [2] = target: T1, TrkB receptor (Rattus norvegicus, UniProt Q63604); assay: Neurite outgrowth assay, inhibition of the BDNF response; type: cell-based
T1 construct: endogenous in cells; host or cells: primary rat cerebellar neurons co-cultured on 3T3 fibroblast monolayers
Experimental: (§1) After 16 hours, the co-cultures were fixed and mean neurite length determined as has been previously described (Williams et al., J. Biol. Chem. 2000, 275:4007–4012).
(§2) The effect of this peptide on the BDNF and NT-4 response was tested in the above-described neurite outgrowth assay, with both NT ligands used at concentrations of 5 ng/ml.

TrkB receptor [3] = target: T1, TrkB receptor; assay: Neurite outgrowth assay, inhibition of the NT-4 response; type: cell-based
Experimental: as §1, §2

cerebellar neurons [4] = assay: Neurite outgrowth assay, cerebellar neurons over 3T3 monolayers (stimulation / basal outgrowth); type: cell-based, rat; details: for effect on basal neurite outgrowth: absence of any natural NT ligand, N-Ac-CRGEC-NH2 at concentrations greater than about 400 μM
Experimental: as §1

MAG inhibitory activity [5] = assay: Neurite outgrowth over N-cadherin expressing 3T3 (LK8) cells with soluble MAG-Fc; type: cell-based, rat; details: for effect on MAG-Fc inhibition of neurite outgrowth: MAG-Fc up to 25 μg/ml, Y27632 10 μM, BAG 6 μM, BDNF 5 ng/ml
Experimental: Reagents and culture treatment. […] In particular, recombinant human FGF2 and BDNF were obtained from R&D systems (Minneapolis, Minn.) and used at final concentrations of 5 ng/ml. The Trk receptor agonist K252a was obtained from Calbiochem (San Diego, Calif.) and used at a final concentration of 100 nM. The Trk agonist peptide BAG (SEQ ID NO:18) was obtained from a commercial supplier (Multiple Peptide Systems, San Diego Calif.). […] Monoclonal antibody to GT1b (clone GMR5) was obtained from Seikagaku America (Falmouth, Mass.) and used at a final concentration of 20 μg/ml. A p75 NTR rabbit polyclonal antibody was raised against the extracellular domain of that receptor as previously described (see, Huber & Chao, Dev. Biol. 1995, 167:227–238) and used at a 1:200 dilution of serum. The known PKA inhibitors KT5720 and H-89 were obtained from Calbiochem (San Diego, Calif.) and used at final concentrations of 200 and 400 nM, respectively. The known PI3K inhibitors Wortmnannin and LY294002 were also obtained from Calbiochem (San Diego, Calif.) and were both used at final concentrations of 10 μM. The Rho kinase inhibitor Y27632 was obtained from Tocris (Bristol, UK) and used at 10 μM final concentration.
All reagents were diluted into the co-culture media and in general added to the cultures just prior to plating of the neurons. The exception was antiserum raised against the p75^NTR receptor. Instead, a high density neuronal suspension was treated with a 1:200 dilution of the serum for 60 minutes. The neurons were then diluted by a factor of about 20, and seeded out for culture.

GT1b = assay: Neurite outgrowth over N-cadherin expressing 3T3 cells with monoclonal antibody for GT1b; type: cell-based, rat; details: antibody 20 μg/ml; Y27632 10 μM, BAG 6 μM
Experimental: Cultures were maintained for 22 hours before fixing and staining for GAP-43. […] Each column in the figure indicates pooled results from between 7 and 10 independent experiments, and the bars on each column indicate the SEM.
Reagents and culture treatment. […] In particular, recombinant human FGF2 and BDNF were obtained from R&D systems (Minneapolis, Minn.) and used at final concentrations of 5 ng/ml. The Trk receptor agonist K252a was obtained from Calbiochem (San Diego, Calif.) and used at a final concentration of 100 nM. The Trk agonist peptide BAG (SEQ ID NO:18) was obtained from a commercial supplier (Multiple Peptide Systems, San Diego Calif.). […] A p75 NTR rabbit polyclonal antibody was raised against the extracellular domain of that receptor as previously described (see, Huber & Chao, Dev. Biol. 1995, 167:227–238) and used at a 1:200 dilution of serum. The known PKA inhibitors KT5720 and H-89 were obtained from Calbiochem (San Diego, Calif.) and used at final concentrations of 200 and 400 nM, respectively.

p75^NTR receptor = assay: Neurite outgrowth over N-cadherin expressing 3T3 cells after treatment with antibody to p75NTR; type: cell-based, rat; details: Y27632 10 μM, BAG 6 μM, BDNF 5 ng/ml added after antibody treatment
Experimental: These antibody treated neurons were cultured after treatment in either: (1) control media without supplements; (2) the Rho kinase inhibitor Y27632 (10 μM final concentration); (3) BAG polypeptide (6 μM final concentration); or (4) BDNF neurotrophin (5 ng/ml final concentration). […] Each column in the figure indicates pooled results from the number of independent experiments indicated above it, and the bars on each column indicate the SEM.
Reagents and culture treatment. Unless otherwise noted here, reagents in the experiments set forth in this Section were obtained and as set forth supra, in Section 7.1.3 et seq. In particular, recombinant human FGF2 and BDNF were obtained from R&D systems (Minneapolis, Minn.) and used at final concentrations of 5 ng/ml. The Trk receptor […] K252a was obtained from Calbiochem (San Diego, Calif.) and used at a final concentration of 100 nM. The Trk agonist peptide BAG (SEQ ID NO:18) was obtained from a commercial supplier (Multiple Peptide Systems, San Diego Calif.). Recombinant MAG-Fc chimera was obtained from R&D Systems (Minneapolis, Minn.) and used at a final concentration of 5–25 μg/ml. Monoclonal antibody to GT1b (clone GMR5) was obtained from Seikagaku America (Falmouth, Mass.) and used at a final concentration of 20 μg/ml. […]

MAG inhibitory activity [6] = assay: Neurite outgrowth over 3T3 cells that do not express N-cadherin with soluble MAG-Fc; type: cell-based, rat; details: 3T3 without N-cadherin, BAG 6 μM
MAG inhibitory activity [7] = assay: Substrate based neurite outgrowth assay in inhibitory environment (MAG-Fc coated wells); type: cell-based, rat; details: for neurite growth in the inhibitory environment (overall / dose response) / neurite growth in the inhibitory environment at 33 μg/ml: 27 hours; for neurite growth in the inhibitory environment at 33 μg/ml: peptide 33 μg/ml
Experimental: First, slides are coated with polylysine at 17 μg/ml in distilled water (“dH2O) for thirty (30) minutes at room temperature. After aspirating the wells, a mixture of anti-human IgG and/or fibronectin (both at 10 μg/ml in DMEM) is added to wells to be coated with those compounds, and incubated for 120 minutes. […] PND2/3 rat cerebellar neurons are then added at 15K to each well in DMEM, 10% FCS, 25 mM KCl and 5 ng/ml FGF2, bringing the final media volume to 300 μl in each well. The cerebellar neurons are cultured for 27 hours before fixing and staining for GAP-43.

cerebellar neurons [8] = details: FGF2 5 ng/ml, WIN55,2122-2 0.2 μM; linear peptide up to 125 μM
Experimental: The peptides were also tested for their ability to inhibit the neurite outgrowth response stimulated by other agents, including N-cadherin, FGF2 or a CB1 receptor agonist.

T1 sequence (Q63604 32-821): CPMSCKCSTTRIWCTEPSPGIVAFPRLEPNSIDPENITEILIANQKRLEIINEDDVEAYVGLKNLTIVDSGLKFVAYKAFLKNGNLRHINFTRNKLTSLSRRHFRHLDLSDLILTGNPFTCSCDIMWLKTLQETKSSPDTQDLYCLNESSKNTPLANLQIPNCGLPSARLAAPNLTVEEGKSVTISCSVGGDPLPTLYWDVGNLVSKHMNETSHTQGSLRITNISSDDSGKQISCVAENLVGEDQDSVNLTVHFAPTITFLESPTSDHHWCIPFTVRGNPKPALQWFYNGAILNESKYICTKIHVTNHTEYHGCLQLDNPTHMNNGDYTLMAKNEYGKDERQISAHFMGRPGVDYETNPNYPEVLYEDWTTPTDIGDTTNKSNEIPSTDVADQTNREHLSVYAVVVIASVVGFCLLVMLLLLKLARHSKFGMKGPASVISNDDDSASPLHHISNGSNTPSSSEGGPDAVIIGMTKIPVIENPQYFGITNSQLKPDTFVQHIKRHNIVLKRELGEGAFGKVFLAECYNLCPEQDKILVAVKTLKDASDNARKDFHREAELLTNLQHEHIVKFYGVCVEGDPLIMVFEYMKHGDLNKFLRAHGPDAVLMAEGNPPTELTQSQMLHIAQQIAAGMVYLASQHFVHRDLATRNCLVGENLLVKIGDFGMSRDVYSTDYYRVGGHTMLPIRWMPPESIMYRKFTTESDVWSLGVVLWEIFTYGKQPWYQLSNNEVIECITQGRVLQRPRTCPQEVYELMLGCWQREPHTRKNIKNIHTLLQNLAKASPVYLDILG
Trk receptor, sequence (Q63604 32-821): as above

O=S(=O)(NCCNC/C=C/c1ccc(Br)cc1)c1cccc2cnccc12 [H-89]
effect on the neurite outgrowth response to BAG (cerebellar neurons [1]): essentially abolished
effect on the neurite outgrowth response to BDNF (cerebellar neurons [1]): essentially abolished
effect on the neurite outgrowth response to FGF2 (cerebellar neurons [1]): unaffected

COC(=O)[C@@]1(O)C[C@H]2O[C@]1(C)n1c3ccccc3c3c4c(c5c6ccccc6n2c5c31)C(=O)NC4 [K252a]
effect on the neurite outgrowth response to BAG (cerebellar neurons [1]): essentially abolished
effect on the neurite outgrowth response to BDNF (cerebellar neurons [1]): essentially abolished
effect on the neurite outgrowth response to FGF2 (cerebellar neurons [1]): unaffected
inhibition of the neurite outgrowth response to the BAG peptide (Trk receptor): fully inhibited the response

CCCCCCOC(=O)[C@]1(O)C[C@@H]2O[C@@]1(C)n1c3ccccc3c3c4c(c5c6ccccc6n2c5c31)C(=O)NC4 [KT5720]
effect on the neurite outgrowth response to BAG (cerebellar neurons [1]): essentially abolished
effect on the neurite outgrowth response to BDNF (cerebellar neurons [1]): essentially abolished
effect on the neurite outgrowth response to FGF2 (cerebellar neurons [1]): unaffected

CC(=O)N[C@H]1CSSC[C@@H](C(N)=O)NC(=O)[C@H](CCC(=O)O)NC(=O)CNC(=O)[C@H](CCCNC(=N)N)NC(=O)[C@H](CCCNC(=N)N)NC(=O)[C@H](CO)NC1=O [N-Ac-CSRRGEC-NH2] (Ac-CSRRGEC-NH2; disulfide 1-7)
TrkB antagonist potency compared with NT-3 and NGF equivalent peptides (TrkB receptor [2]): more potent TrkB antagonist
IC50 (TrkB receptor [2]; 50% inhibition of the BDNF response, BDNF 5 ng/ml): 27 µM and ~25 µM
fold better than the NGF and NT-3 derived peptides at inhibiting the BDNF response (TrkB receptor [2]; BDNF 5 ng/ml): approximately 5 fold
IC50 (TrkB receptor [3]): ~55 µM
effect on basal neurite outgrowth (cerebellar neurons [4]): neither the N-Ac-CSRRGEC-NH2 (SEQ ID NO:2) peptide nor its NGF or NT-3 equivalents had any effect on basal neurite outgrowth
inhibition of the neurite outgrowth response to the BAG peptide (Trk receptor): can fully inhibit the activity

CCN(CC)CCCCNc1ncc2cc(-c3cc(OC)cc(OC)c3)c(NC(=O)NC(C)(C)C)nc2n1 [PD17304, reference compound]
inhibition of the neurite outgrowth response to the BAG peptide (Trk receptor): did not inhibit the response

C[C@@H](N)[C@H]1CC[C@H](C(=O)Nc2ccncc2)CC1 [Y27632, reference compound]
effect on MAG-Fc inhibition of neurite outgrowth (MAG inhibitory activity [5]): MAG-Fc does not inhibit neurite outgrowth
effect on inhibition of neurite outgrowth by GT1b antibody (GT1b): effectively abolishes this effect
effect on inhibitory response elicited by p75NTR antibody (p75^NTR receptor): does not elicit an inhibitory response

Ac-CSRRGELAASRRGELC-NH2 (cysteine pairing not given here) [BAG]
EC50 (cerebellar neurons [4]): ~0.3 µM
concentration of near maximal neurite outgrowth response (cerebellar neurons [4]): about 600 Nm
promotion of axonal growth compared with established growth promoting agents (cerebellar neurons [4]; BAG 6 μM, comparators 5 ng/ml): promotes axonal growth by the same extent as maximally active concentrations of NT-R, BDNF and FGF2
lowest concentration that effectively blocks MAG inhibitor activity (MAG inhibitory activity [5]; MAG-Fc 25 μg/ml): 30 nM
effect on MAG-Fc inhibition of neurite outgrowth (MAG inhibitory activity [5]): MAG-Fc failed to inhibit neurite outgrowth
effect on neurite outgrowth in the absence of MAG-Fc (MAG inhibitory activity [6]): does not have a substantial effect
effect on MAG-Fc inhibition of neurite outgrowth (MAG inhibitory activity [6]; MAG-Fc 25 μg/ml, BDNF 5 ng/ml): does effectively block the MAG response
effect on inhibition of neurite outgrowth by GT1b antibody (GT1b): the antibody's inhibitor effect is effectively eliminated
effect on inhibitory response elicited by p75NTR antibody (p75^NTR receptor): effectively blocks the p75^NTR antibody's inhibitory effect
neurite growth in the inhibitory environment at 10 μg/ml and 100 μg/ml (MAG inhibitory activity [7]; concentrations of 10 μg/ml and 100 μg/ml, MAG-Fc coating): promotes neurite growth

Ac-SRRGELA-NH2
inhibition of the BDNF response (TrkB receptor [2]; BDNF 5 ng/ml, linear peptide up to 125 μM): did not inhibit any of the response
inhibition of the NT-4 response (TrkB receptor [3]; NT-4 5 ng/ml, linear peptide up to 125 μM): did not inhibit any of the response
inhibition of neurite outgrowth response stimulated by N-cadherin, FGF2 or a CB1 receptor agonist (cerebellar neurons [8]): did not inhibit any of the response
inhibition of the neurite outgrowth response to the BAG peptide (Trk receptor): very little to no effect

Ac-dCdLdEGdRdRdSdAdAdLdEGdRdRdSdC-NHs [riBAG1]
neurite growth in the inhibitory environment (overall / dose response) (MAG inhibitory activity [7]; MAG-Fc coating): block MAG inhibitory activity and promote neurite outgrowth
neurite growth in the inhibitory environment at 33 μg/ml (MAG inhibitory activity [7]; MAG-Fc coating): does not promote growth

N-Ac-CRGEC-NH2
effect on basal neurite outgrowth (cerebellar neurons [4]): no effect on basal neurite outgrowth

c(dLdEGdRdRdSdLdEGdRdRdS) [hriBAG2]
neurite growth in the inhibitory environment (overall / dose response) (MAG inhibitory activity [7]; MAG-Fc coating): block MAG inhibitory activity and promote neurite outgrowth; also recorded: promoted substantial dose-dependent neurite growth
dose at which a neurite growth response can be observed (MAG inhibitory activity [7]; inhibitory environment (MAG-Fc coating)): about 10 μg/ml
neurite growth in the inhibitory environment at 33 μg/ml (MAG inhibitory activity [7]; MAG-Fc coating): almost double the value seen in the inhibitory environment without the peptidomimetic; also recorded: promoted neurite growth to a substantially greater extent than BDNF, BAG peptide, and the hBAG2 and riBAG1 at any concentration

cyclo(SRRGELSRRGEL) [hBAG2]
neurite growth in the inhibitory environment (overall / dose response) (MAG inhibitory activity [7]; MAG-Fc coating): block MAG inhibitory activity and promote neurite outgrowth
neurite growth in the inhibitory environment at 33 μg/ml (MAG inhibitory activity [7]; MAG-Fc coating): promotes neurite growth; also recorded: promoted neurite growth to an extent comparable to BAG polypeptide at a concentration of 10 μg/ml
